Columns and labels:
C57BL/6 mice = assay: Side effects observed during hair regeneration experiment; type: in vivo, mouse; settings: topical treatment during the experiment
Description: (§1) During the hair telogen phase, the hair on the dorsal skin of 7-week-old C57BL/6 mice (Dae Han BioLink, Chungbuk, Republic of Korea) was depilated using an animal clipper and wax (Veet, Oxy Reckitt Benckiser, Seoul, Republic of Korea). From the next day, 200 μL of placebo (control), 1% IM, 1% minoxidil, or 1% metformin was applied daily to the depilated area using a sterile cotton swab. Images of each animal were captured daily, and the degree of darkness of the color on dorsal skin was quantified in the same area (1.6 cm×3 cm) using the Image J program. The mice were sacrificed, and skin tissues on days 0, 7, 14, and 20 were obtained. Half of the tissues were used for RNA isolation, and the other half were fixed with 4% paraformaldehyde overnight for histochemical analysis.

[1] = tested on: HK2, LDHA, NDUS3, ATP5B, Wnt1a, Lef-1, Gli-1, versican; assay: Expression of genes related to metabolism and hair regeneration in skin tissue; type: in vivo, mouse
Description: as §1, with “analysis. The level of expression of genes related to metabolism and hair regeneration was analyzed through the skin tissue of each mouse group.” for “analysis.”

[2] = tested on: human embryonic stem cells (hESCs); assay: Maintaining stemness of human embryonic stem cells in unconditioned medium, AP staining; type: cell-based; settings: for improvement of effect of maintaining stemness: hESCs in UM
Description: Additionally, the effect of the compounds of the present invention on maintaining sternness of human embryonic stern cells (hESCs) was confirmed (FIG. 4). Specifically, when hESCs were cultured in an unconditioned medium (UM), the sternness was lost, and AP activity was weakened (FIG. 4a). […] In particular, when IM176OUT05 was treated at 10 nM and 100 nM concentrations, it was confirmed that the effect of maintaining the sternness was improved by 7.6 times and 8.2 times, respectively (FIG. 4b).

[3] = tested on: mouse embryonic fibroblasts (MEFs); assay: Reprogramming into iPSCs (OSKM) in mouse embryonic fibroblasts, AP staining; type: cell-based; settings: MEFs; for enhancing reprogramming efficiency: 14 days
Description: During reprogramming into iPSCs by introducing OSKM reprogramming factor into mouse embryonic fibroblasts (MEFs), rotenone, the guanidine derivatives of the present invention, and phenformin were treated at the indicated concentrations. After 14 days, alkaline phosphatase (AP) staining was performed (FIG. 2A), and the number of AP^+ colonies was quantified (FIG. 2b). […] In the subsequent experiment, additional efficacy was evaluated using only the three compounds showing the effective reprogramming-enhancing effect.

auricle = assay: Auricle punch analysis (auricular tissue repair); type: in vivo, mouse; settings: 2 mm ear punch holes, daily topical application, indicated concentrations
Description: For the auricular tissue repair analysis, three holes with a diameter of 2 mm were drilled in each ear using a punching instrument (Fine Science Tools, British Columbia, Canada). IM at the indicated concentration was applied daily with a sterile cotton swab. The hole area was measured with digital calipers (VWR, Radnor, Pa., USA).

hair follicles = assay: Quantitative histomorphometric analysis of hair follicle cycle and number (H&E); type: in vivo, mouse
Description: During the hair telogen phase, the hair on the dorsal skin of 7-week-old C57BL/6 mice (Dae Han BioLink, Chungbuk, Republic of Korea) was depilated using an animal clipper and wax (Veet, Oxy Reckitt Benckiser, Seoul, Republic of Korea). From the next day, 200 μL of placebo (control), 1% IM, 1% minoxidil, or 1% metformin was applied daily to the depilated area using a sterile cotton swab. Images of each animal were captured daily, and the degree of darkness of the color on dorsal skin was quantified in the same area (1.6 cm×3 cm) using the Image J program. The mice were sacrificed, and skin tissues on days 0, 7, 14, and 20 were obtained. Half of the tissues were used for RNA isolation, and the other half were fixed with 4% paraformaldehyde overnight for histochemical analysis. The tissues fixed in Example 1.1. were immersed in 30% sucrose, and then embedded in an OCT compound (Sakura Finetek USA Inc, Torrance, Calif., USA). Frozen fragments were obtained using a cryostat sectioning device (Leica, Wetzlar, Germany) and stained using hematoxylin (Sigma) and eosin (Sigma) (H&E), or each of the antibodies shown in Table 1 below. Immunohistochemical analysis was performed, and fluorescence images were taken with an Olympus microscope (Olympus) According to the guidelines for accurately classifying the hair cycle stages, the hair cycle was quantified by classifying individual hair follicles with H&E staining micrographs in the longitudinal section of each mouse (n>10). The percentage of the anagen phase of the hair was calculated for each group. Hair follicles in the same area (1300 μm width) were counted by H&E staining micrographs in the cross section of each mouse (n>10).

[4] = tested on: human foreskin fibroblast (HFFs); assay: Reprogramming into iPSCs (OSKM) in human foreskin fibroblasts, AP staining; type: cell-based
Description: After 28 days, AP staining was performed (FIG. 3a), and the number of AP^+ colonies was quantified (FIG. 3b).

**Q.** Which results are given for `Cc1ccccc1CCNC(=N)NC(=N)N` [IM176OUT05, N-1-(2-methyl)phenethylbiguanide]?
**A.** side effects, including skin problems (C57BL/6 mice): No side effects; expression of stemness-related genes (Wnt1a, Lef-1, Gli-1, and versican) ([1]; day 7, skin): significantly upregulated; expression of glycolysis-related enzymes (HK2 and LDHA) ([1]; day 7, skin tissue): significantly induced; stemness-related genes compared to control ([1]; day 20, skin): significantly induced; expression of OXPHOS-related enzymes (NDUS3 and ATP5B) compared to control ([1]; day 20, skin tissue): increased; expression of glycolysis-related enzymes (HK2 and LDHA) compared to control ([1]; day 20, skin tissue): significantly increased; improvement of effect of maintaining stemness ([2]; 10 nM): 7.6 times; improvement of effect of maintaining stemness ([2]; 100 nM): 8.2 times; AP staining (stemness) ([2]; hESCs in unconditioned medium, low dose): increase in AP staining; enhancing reprogramming efficiency ([3]; 10 nM): 16.8 times; enhancing reprogramming efficiency ([3]; 20 nM): 13.9 times; enhancing reprogramming efficiency ([3]; 50 nM): 13.7 times; effect on reprogramming, number of AP+ colonies ([3]; OSKM, after 14 days, indicated concentrations): increased; wound area of the auricle (auricle): reduced the wound area of the auricle in a dose-dependent manner; number of hair follicles compared to control (hair follicles; day 7, cross section): significantly increased; number of hair follicles compared to control (hair follicles; day 20): significantly higher; stage of most hair follicles (hair follicles; day 20, longitudinal section): growth phases V and VI; progression of the hair follicle cycle (hair follicles; histomorphometry): stimulated the progression of the hair follicle cycle; enhancing reprogramming efficiency ([4]; 10 nM, 100 nM, and 500 nM, 28 days): ≥ 2.4 times; concentration with the most excellent reprogramming efficacy ([4]; OSKM, after 28 days): 10 nM

Reference: patent US20220000811A1, “COMPOSITION FOR PROMOTING HAIR GROWTH COMPRISING A GUANINE DERIVATIVE” (KOREA RESEARCH INSTITUTE OF BIOSCIENCE AND BIOTECHNOLOGY, priority 2019, published 2022)
